Results from ChEMBL document CHEMBL1147191, “Structure-activity relationship studies on anti-HCV activity of ring-expanded ('fat') nucleobase analogues containing the imidazo[4,5-e][1,3]diazepine-4,8-dione ring system” (Bioorg Med Chem Lett, 2007).

Assays:
Hepatitis C virus = assay: Antiviral activity against HCV in Huh7 ET cells assessed as HCV RNA derived luciferase activity at 10 uM by replicon assay relative to control; type: functional, Hepacivirus hominis
[1] = Selectivity index, ratio of toxicity against Huh7 ET cells to viral activity against HCV; type: functional
[2] = Cytotoxicity against Huh7 ET cells assessed as beta actin level relative to control; type: cell-based; design: concentration or dose not given beside the values; conditions: human

Compound	Activity (Hepatitis C virus) [%]	Selectivity index [1]	Activity [2] [%]
CCCCCCCCNc1nc(=O)c2c(nc(Br)n2Cc2ccc(OC)cc2)c(=O)[nH]1	32	2.155	69
CCCCCCCCNc1nc(=O)c2c(nc(C#CCCO)n2Cc2ccc(OC)cc2)c(=O)[nH]1	90	0.578	52
CCCCCCCCNc1nc(=O)c2c(nc(-c3ccccc3)n2Cc2ccc(OC)cc2)c(=O)[nH]1	88	0.932	82
CCCCCCCCNc1nc(=O)c2c(nc(-c3ccc(OC)cc3)n2Cc2ccc(OC)cc2)c(=O)[nH]1	54	1.463	79
NC(=O)c1ncn([C@@H]2O[C@H](CO)[C@@H](O)[C@H]2O)n1 [RIBAVIRIN]	89	0.42	12
